{"source": "patent US20080031868A1", "about": "“HUMAN LYSOZYME MEDICINE, ITS MANUFACTURING METHOD AND APPLICATION THEREOF” (priority 2005, published 2008)", "key": {"[1]": {"test_system": "Staphylococcus aureus MRSABAA-42", "experiment": "Bronchus pneumonia mice infected by Staphylococcus aureus MRSA BAA-42, treated by atomization inspiring", "format": "in vivo", "details": "for survival rate (%): 14 days; for bacterial number: mice lung", "from_the_text": "A, atomization sucks gene recombinant Human Lysozyme (HLZ) cured bronchus pneumonia mice infected by Staphylococcus aureus MRSABAA-42\nChoose the test lawn, after washing with the physiological saline, correcting by McB tubes for comparative tests bacterium solution concentration 2#MCF, turbidity of 2.7×10^11 CFU/ml, diluted with physiological saline separately into 10^−1, 10^−2, 10^−3 bacterium solution, drip the nose to infect for mice respectively (anaesthetize the mice with the pentobarbital first, 30 mg/kg, ip.), 0.05 ml a mouse. Observed the mice body changing, and killed parts of mice after infecting 48 h, fetch the whole lung to tissue homogenate, 10 times diluted by physiological saline, draw 0.1 m1 to MH agar plate surface, to cultivate last night 35° C., Gram staining, test under microscope, and count plate. At the same time recorded the number of death mice, and collect some mice tracheas, bronchus, lung tissue and do pathology tissue observing.\nIt is called medial lethal dose (LD50) that bacterium amount caused mice appearing lung pharmacology change and 50% died. LD50was used as experimental treatment amount.\nInfected mice is divided into 10 groups at random according to the weight, 30 every groups.\nDesigned dosage: The concentration of recombinant human lysozyme medicine was 15000 u/ml as in clinical atomization therapy. Its dose was 15000 u per time and administrated one time everyday, I.e 0.5 mg per time everyday. The dose was 1.3×10-3 mg a mice (counted by weight of 20 g). […] To ensure the breathing amount of lysozyme, the breathing time were extended for 0.5 hour. Based on 0.5 mg/ml, the concentration of 0.25 mg/ml, 1.0 mg/ml and 2.0 mg/ml were set respectively as treatment dose.\nThe same group mice were put into the ultrasonic atomizer and then treated with human lysozyme atomized in the compression sprayer (PARL.BOY), twice a day, 5 days in succession.\nEvery group, from the infected day to calculae, the animal incidence and death were recorded 14 days in succession. Every group collected 2-3 mice and killed them the 14th day after infecting, did bacteriology detection after lung homogenate, killed surplus animal to fetch the trachea, bronchus, fixed in 10% of the formaldehyde solution after weighing, did pathology check.\nThe bacterial culture: A part of mice were killed after infecting 24 h, fetched the whole lung weighting, added 2 ml degerming PBS solution 10 times diluted, draw 0.1 mL to MH agar plate surface, to cultivate last night 35° C., counted in the cultivation plateform of 30-300 CF, if the two close level tissue fluid is 30-300 CFU, counted the low density (make 3 plateforms at the same time each tissue fluid, calculate the average). Collected 2 mice to do bacterial culture in every group at random in 5, 7, 14 days after administration.\nPathology detection: After dissecting the mice, observed the trachea, bronchus, syncretio of lung, chest wall and membrana pleuralis, the volume of lung and size of lung focus, the lung surface was congested, hydroncus, consolidation and atelectasis by the naked eye. Took out the trachea, bronchus and the whole lung tissue to fixed with 10% of the formaldehyde solution, draw materials."}, "[2]": {"test_system": "Staphylococcus aureus MRSABAA-42", "experiment": "Bronchus pneumonia mice infected by Staphylococcus aureus MRSA BAA-42, treated by atomization inspiring", "format": "in vivo", "details": "for accumulative survival number: 30 mice; for survival elevation rate (%): versus infected model group"}, "[3]": {"details": "0.25 mg/ml atomization inspired, listed as gene recombinant human lysozyme"}, "[4]": {"details": "0.25 mg/ml atomization inspired, listed as recombinant human lysozyme"}, "[5]": {"details": "0.25 mg/ml atomization inspired"}, "[6]": {"details": "0.25 mg/ml atomization inspired, 14 days"}, "[7]": {"details": "0.5 mg/ml atomization inspired, 14 days"}}, "note": "Marks after values point to notes of the source that are not given here."}
{"substance": "Human lysozyme: gene recombinant Human Lysozyme (HLZ), active unit 30000 u/mg, batch number 020110; given atomized / as aerosol", "values": [{"measurement": "survival rate (%)", "setting": "[1]; [3]", "value": 40, "unit": "%"}, {"measurement": "survival rate (%)", "setting": "[1]; [4]", "value": 40, "unit": "%"}, {"measurement": "average survival day (day, x ± s)", "setting": "[1]; [3]", "value": "9.30 ± 4.08", "unit": "days"}, {"measurement": "average survival day (day, x ± s)", "setting": "[1]; [4]", "value": "9.30 ± 4.08", "unit": "days"}, {"measurement": "Death number(piece)", "setting": "[1]; 0.5 mg/ml atomization inspired, day 7", "value": 4, "unit": "piece"}, {"measurement": "average survival day (day, x ± s)", "setting": "[1]; 0.5 mg/ml atomization inspired, listed as gene recombinant human lysozyme", "value": "10.3 ± 3.77", "unit": "days"}, {"measurement": "average survival day (day, x ± s)", "setting": "[1]; 0.5 mg/ml atomization inspired, listed as recombinant human lysozyme", "value": "3.77 ± 10.3", "unit": "days"}, {"measurement": "survival number", "setting": "[1]; 1 mg/ml atomization inspired, 30 mice", "value": 17}, {"measurement": "average survive days", "setting": "[1]; 1 mg/ml atomization inspired, listed as gene recombinant human lysozyme", "value": "11.2 ± 3.36", "unit": "days"}, {"measurement": "average survive days", "setting": "[1]; 1 mg/ml atomization inspired, listed as recombinant human lysozyme", "value": "11.23 ± 3.36", "unit": "days"}, {"measurement": "Death number(piece)", "setting": "[1]; 2 mg/ml atomization inspired, day 8", "value": 2, "unit": "piece"}, {"measurement": "average survival day (day, x ± s)", "setting": "[1]; 2 mg/ml atomization inspired, listed as gene recombinant human lysozyme", "value": "12.93 ± 2.05", "unit": "days"}, {"measurement": "average survival day (day, x ± s)", "setting": "[1]; 2 mg/ml atomization inspired, listed as recombinant human lysozyme", "value": "12.93 ± 2.05", "unit": "days"}, {"measurement": "result of pathology detection of the mice lung tissue", "setting": "[1]; high dose 2 mg/ml, 14th day", "value": "normal basically"}, {"measurement": "result of pathology detection of the mice trachea", "setting": "[1]; high dose 2 mg/ml, 14th day", "value": "Normal basically"}, {"measurement": "result of pathology detection of the mice lung tissue", "setting": "[1]; low dose 0.5 mg/ml, 14th day", "value": "bronchiole alveolar wall tissue gently thickening, few"}, {"measurement": "result of pathology detection of the mice lung tissue", "setting": "[1]; medium dose 1 mg/ml, 7th day", "value": "few monocaryon infiltrating"}, {"measurement": "bacterial number", "setting": "[1]; atomization inspired 0.5 (15000 u/piece), 0 day", "value": "350 ± 21.5", "unit": "CFU/mL"}, {"measurement": "bacterial number", "setting": "[1]; atomization inspired 1 (30000 u/piece), the 5th day", "value": "78.30 ± 17.86**^ΔΔ CFU/mL"}, {"measurement": "bacterial number", "setting": "[1]; atomization inspired 2 (60000 u/piece), 0 day", "value": "350 ± 21.5", "unit": "CFU/mL"}, {"measurement": "95% feasible limits of ED50", "setting": "[1]; mice survival over 14 days, Bliss method", "value": "200 to 900", "unit": "µg/mL"}, {"measurement": "ED50 (median effective dose)", "setting": "[1]; mice survival over 14 days, Bliss method, atomization inspired", "value": 530, "unit": "µg/mL"}, {"measurement": "average survival day (day, x ± s)", "setting": "[2]; [5]", "value": "9.30 ± 4.08", "unit": "days"}, {"measurement": "accumulative survival number", "setting": "[2]; [6]", "value": 12}, {"measurement": "survival rate (%)", "setting": "[2]; [6]", "value": 40.0, "unit": "%"}, {"measurement": "Death number(piece)", "setting": "[2]; 0.25 mg/ml atomization inspired, day 1", "value": 0, "unit": "piece"}, {"measurement": "Death number(piece)", "setting": "[2]; 0.25 mg/ml atomization inspired, day 2", "value": 0, "unit": "piece"}, {"measurement": "Death number(piece)", "setting": "[2]; 0.25 mg/ml atomization inspired, day 3", "value": 1, "unit": "piece"}, {"measurement": "Death number(piece)", "setting": "[2]; 0.25 mg/ml atomization inspired, day 4", "value": 2, "unit": "piece"}, {"measurement": "Death number(piece)", "setting": "[2]; 0.25 mg/ml atomization inspired, day 5", "value": 3, "unit": "piece"}, {"measurement": "Death number(piece)", "setting": "[2]; 0.25 mg/ml atomization inspired, day 6", "value": 3, "unit": "piece"}, {"measurement": "Death number(piece)", "setting": "[2]; 0.25 mg/ml atomization inspired, day 7", "value": 5, "unit": "piece"}, {"measurement": "Death number(piece)", "setting": "[2]; 0.25 mg/ml atomization inspired, day 8", "value": 4, "unit": "piece"}, {"measurement": "Death number(piece)", "setting": "[2]; 0.25 mg/ml atomization inspired, day 9", "value": 0, "unit": "piece"}, {"measurement": "Death number(piece)", "setting": "[2]; 0.25 mg/ml atomization inspired, day 10", "value": 0, "unit": "piece"}, {"measurement": "Death number(piece)", "setting": "[2]; 0.25 mg/ml atomization inspired, day 11", "value": 0, "unit": "piece"}, {"measurement": "Death number(piece)", "setting": "[2]; 0.25 mg/ml atomization inspired, day 12", "value": 0, "unit": "piece"}, {"measurement": "Death number(piece)", "setting": "[2]; 0.25 mg/ml atomization inspired, day 13", "value": 0, "unit": "piece"}, {"measurement": "Death number(piece)", "setting": "[2]; 0.25 mg/ml atomization inspired, day 14", "value": 0, "unit": "piece"}, {"measurement": "survival elevation rate (%)", "setting": "[2]; [5]", "value": 23.3, "unit": "%"}, {"measurement": "average survival day (day, x ± s)", "setting": "[2]; 0.5 mg/ml atomization inspired", "value": "10.3 ± 3.77***^Δ day"}, {"measurement": "accumulative survival number", "setting": "[2]; [7]", "value": 14}, {"measurement": "survival rate (%)", "setting": "[2]; [7]", "value": 46.7, "unit": "%"}, {"measurement": "Death number(piece)", "setting": "[2]; 0.5 mg/ml atomization inspired, day 1", "value": 0, "unit": "piece"}, {"measurement": "Death number(piece)", "setting": "[2]; 0.5 mg/ml atomization inspired, day 2", "value": 0, "unit": "piece"}, {"measurement": "Death number(piece)", "setting": "[2]; 0.5 mg/ml atomization inspired, day 3", "value": 0, "unit": "piece"}, {"measurement": "Death number(piece)", "setting": "[2]; 0.5 mg/ml atomization inspired, day 4", "value": 2, "unit": "piece"}, {"measurement": "Death number(piece)", "setting": "[2]; 0.5 mg/ml atomization inspired, day 5", "value": 2, "unit": "piece"}, {"measurement": "Death number(piece)", "setting": "[2]; 0.5 mg/ml atomization inspired, day 6", "value": 3, "unit": "piece"}, {"measurement": "Death number(piece)", "setting": "[2]; 0.5 mg/ml atomization inspired, day 8", "value": 5, "unit": "piece"}, {"measurement": "Death number(piece)", "setting": "[2]; 0.5 mg/ml atomization inspired, day 9", "value": 0, "unit": "piece"}, {"measurement": "Death number(piece)", "setting": "[2]; 0.5 mg/ml atomization inspired, day 10", "value": 0, "unit": "piece"}, {"measurement": "Death number(piece)", "setting": "[2]; 0.5 mg/ml atomization inspired, day 11", "value": 0, "unit": "piece"}, {"measurement": "Death number(piece)", "setting": "[2]; 0.5 mg/ml atomization inspired, day 12", "value": 0, "unit": "piece"}, {"measurement": "Death number(piece)", "setting": "[2]; 0.5 mg/ml atomization inspired, day 13", "value": 0, "unit": "piece"}, {"measurement": "Death number(piece)", "setting": "[2]; 0.5 mg/ml atomization inspired, day 14", "value": 0, "unit": "piece"}, {"measurement": "survival elevation rate (%)", "setting": "[2]; 0.5 mg/ml atomization inspired", "value": 30.0, "unit": "%"}, {"measurement": "survival rate", "setting": "[2]; 1 mg/ml atomization inspired, 14 days", "value": 56.7, "unit": "%"}, {"measurement": "average survival day (day, x ± s)", "setting": "[2]; 2 mg/ml atomization inspired", "value": "12.93 ± 2.05***^ΔΔΔ day"}]}
